Results taken from US9763954B2, “Therapeutical uses of eslicarbazepine” (BIAL-PORTELA & CA, S.A., priority 2007, dated 2017).
Entries after “also recorded” stand apart in the source; their conditions may differ.

Tests used:
[1] = tested on: P-gp or MRP; conditions: cited from earlier work; for category of P-gp or MRP substrates: AEDs listed in the discussion
[2] = tested on: Multiple Resistant Proteins (MRP); experiment: Brain/plasma ratio in mice pre-treated with the MRP inhibitor probenecid; conditions: for substrate for MRP: concluded from probenecid pre-treatment
Description: (§2) CD-1 mice weighing 30-35 g were maintained under controlled environmental conditions (23-24° C.) for at least 5 days before the experiment. […] In the second series of experiments, mice pre-treated with vehicle, verapamil (20 mg/kg) or probenecid (100 mg/kg) were given 30 min later intraperitoneally S-licarbazepine or R-licarbazepine (100 mg/kg). […] After collection of blood, plasma was obtained by centrifugation. Brain samples were homogenised in phosphate buffer (pH 5; 4 mL/g) followed by centrifugation and collection of the supernatant. Plasma and the tissue supernatant were stored frozen until analysis. The assay of S-licarbazepine and R-licarbazepine was performed using a HPLC-UV or LC-MS method following solid phase extraction.

[3] = tested on: NMRI mice; experiment: Formalin paw test; type: in vivo; conditions: 100 mg/kg p.o., 120 minutes before the test; FIG. 6
Description: The method, which detects analgesic/anti-inflammatory activity, follows that described by Wheeler-Aceto et al (Wheeler-Aceto et al., 1991). NMRI mice were given an intraplantar injection of 5% formalin (25 μl) into the posterior left paw. […] The time spent licking was counted for 15 minutes, beginning 15 minutes after injection of formalin. 10 mice were studied per group. The test was performed blind. S-Licarbazepine and R-licarbazepine were tested at the dose of 100 mg/kg p.o., administered 120 minutes before the test (i.e. […]), and compared with a vehicle control group in each experiment.

[4] = tested on: NMRI mice; experiment: Corneal kindling procedure (acquisition of kindling); type: in vivo
Description: Vehicle (30% DMSO in distilled water) or the compounds dissolved in 30% DMSO were administered intraperitoneally twice daily. NMRI mice were stimulated twice daily (interstimulation interval 6-7 h) on twelve consecutive days. The electrostimulations with current intensities of 3 mA and duration of 3 s (pulse frequency 50 Hz) were applied via corneally placed saline-soaked copper electrodes. A stimulator was used to deliver a constant current regardless of the impedance of the test object. Seizure severity was ranked according to a modified system of Racine (Racine, 1972): 1, mild facial clonus and eye blinking; 2, severe facial clonus, head nodding, chewing; 3, unilateral or alternating forelimb clonus; 4, bilateral forelimb clonus with rearing […]; 5, bilateral forelimb clonus with rearing and falling; 6, tonic fore- and/or hindlimb extension.

[5] = target: P-glycoprotein (P-gp) (Mus musculus, UniProt P21447); experiment: Brain/plasma ratio in mice pre-treated with the P-gp inhibitor verapamil; conditions: for substrate for P-gp: concluded from verapamil pre-treatment; for effect of verapamil on brain/plasma ratio: verapamil 20 mg/kg 30 min before 100 mg/kg intraperitoneally, FIG. 2
Description: as §2

[6] = Plasma pharmacokinetics after oral administration to CD-1 mice; type: in vivo
Text: (§1) The following pharmacokinetic parameters for S-licarbazepine and R-licarbazepine were derived by non-compartmental analysis from the concentration versus time profiles: maximum observed plasma drug concentration (Cmax), time at which the Cmax occurred (tmax), area under the plasma concentration versus time curve (AUC) from time zero to the last sampling time at which concentrations were at or above the limit of quantification (AUC0-t) and AUC from time zero to infinity (AUC0-∞), elimination half-life (t1/2) and mean residence time (MRT). The pharmacokinetic parameters were determined using WinNonlin (version 4.0). Summary statistics of all data for each treatment and scheduled sampling times were reported, as appropriate, using the geometric mean, arithmetic mean, standard deviation (SD), coefficient of variation (CV), median, minimum and maximum. The statistical package SAS Version 8.2 or higher (SAS Institute, Cary, USA) was used in all computations when considered appropriate.

[7] = Brain pharmacokinetics (brain access) after oral administration to CD-1 mice; type: in vivo; conditions: for presence of the opposite enantiomer in brain: analyte found after administration of the other enantiomer
Text: as §1

[8] = tested on: patients with drug-resistant epilepsy; conditions: six months after initiation of therapy; 120 patients who had tried at least 3-4 other AEDs; cited from earlier work
[9] = tested on: partial epilepsy refractory patients; conditions: cited from earlier work
[10] = 100 mg/kg twice daily, twelve days
[11] = plasma, after 350 mg/kg R-licarbazepine oral, CD-1 mice
[12] = brain, after 350 mg/kg R-licarbazepine oral, CD-1 mice
[13] = eslicarbazepine acetate 100 mg/kg, i.p., FIG. 3

Sequence of P-glycoprotein (P-gp) (P21447 whole entry): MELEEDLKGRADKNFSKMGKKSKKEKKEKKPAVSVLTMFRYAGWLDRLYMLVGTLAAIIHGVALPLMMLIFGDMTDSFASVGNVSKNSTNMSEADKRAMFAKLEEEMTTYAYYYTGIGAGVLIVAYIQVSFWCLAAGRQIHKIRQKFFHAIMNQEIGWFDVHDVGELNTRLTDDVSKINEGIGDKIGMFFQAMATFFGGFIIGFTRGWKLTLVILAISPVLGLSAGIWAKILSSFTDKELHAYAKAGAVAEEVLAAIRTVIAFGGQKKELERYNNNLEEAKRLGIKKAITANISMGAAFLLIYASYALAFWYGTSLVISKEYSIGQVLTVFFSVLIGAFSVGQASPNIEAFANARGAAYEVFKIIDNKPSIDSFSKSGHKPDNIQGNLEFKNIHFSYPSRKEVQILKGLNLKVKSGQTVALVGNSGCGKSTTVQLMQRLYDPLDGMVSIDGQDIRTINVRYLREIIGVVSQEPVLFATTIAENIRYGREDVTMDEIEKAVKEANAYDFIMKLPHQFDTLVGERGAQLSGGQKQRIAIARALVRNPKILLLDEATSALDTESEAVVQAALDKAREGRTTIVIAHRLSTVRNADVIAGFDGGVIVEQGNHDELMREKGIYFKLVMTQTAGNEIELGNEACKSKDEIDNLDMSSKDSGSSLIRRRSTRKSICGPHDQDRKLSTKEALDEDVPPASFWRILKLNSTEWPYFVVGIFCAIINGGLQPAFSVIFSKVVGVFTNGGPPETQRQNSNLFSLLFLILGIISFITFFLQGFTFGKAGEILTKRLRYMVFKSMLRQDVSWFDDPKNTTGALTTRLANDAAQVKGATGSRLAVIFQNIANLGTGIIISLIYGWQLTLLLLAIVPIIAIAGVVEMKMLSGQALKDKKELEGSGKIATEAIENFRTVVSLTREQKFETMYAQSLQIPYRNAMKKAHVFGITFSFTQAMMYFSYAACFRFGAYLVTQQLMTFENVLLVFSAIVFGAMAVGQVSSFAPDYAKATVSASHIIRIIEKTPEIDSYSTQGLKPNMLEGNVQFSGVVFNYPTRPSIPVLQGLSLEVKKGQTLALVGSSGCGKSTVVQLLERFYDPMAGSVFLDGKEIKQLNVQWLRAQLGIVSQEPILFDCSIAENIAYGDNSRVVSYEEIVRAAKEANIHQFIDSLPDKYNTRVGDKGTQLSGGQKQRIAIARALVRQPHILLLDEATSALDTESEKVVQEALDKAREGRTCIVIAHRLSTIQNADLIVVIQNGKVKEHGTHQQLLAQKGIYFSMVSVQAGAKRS

For `NC(=O)OCC(COC(N)=O)c1ccccc1` [felbamate], the “category of P-gp or MRP substrates” value [1] is given as “P-gp or MRP substrates”.

In the case of `O=C1NC(=O)C(c2ccccc2)(c2ccccc2)N1` [phenytoin], the “category of P-gp or MRP substrates” value [1] is given as “P-gp or MRP substrates”.

For `CCC1(c2ccccc2)C(=O)NC(=O)NC1=O` [phenobarbital], the “category of P-gp or MRP substrates” value [1] is listed as “P-gp or MRP substrates”.

With `NC(=O)N1c2ccccc2C[C@@H](O)c2ccccc21` [R-licarbazepine] the “substrate for MRP” value [2] was “not for MRP”, the “licking time versus vehicle controls” value [3] was “did not attain statistical significance” and the “effect on acquisition of kindling” value ([4]; 100 mg/kg twice daily intraperitoneally, twelve days) was “no inhibitory effect”. For the same compound, the “adverse effects during the course of the experiment” value [4, 10] was “no adverse effects were obvious”, the “mean seizure severity versus vehicle control group” value ([4]; 100 mg/kg twice daily, S-lic: all sessions of first three days, R-lic: all sessions except afternoon of day 8) was “no significant differences” and the “number of stimulations necessary to induce a seizure with a given severity score” value ([4]; 100 mg/kg twice daily, score 3 and 4 (S-lic), score 3, 4, 5 and 6 (R-lic), versus control) was “did not differ”. The “animals that had reached the kindling criterion (at least one generalized seizure, score 4-6)” value ([4]; at termination of treatment, day 12) was “all of the treated animals”, the “substrate for P-gp” value [5] was “is a substrate” and the “effect of verapamil on brain/plasma ratio” value [5] was “markedly increased; also recorded: equals that of S-licarbazepine in vehicle-treated animals”. For the same compound, the “absorption after oral administration” value ([6]; oral, CD-1 mice) was “rapidly absorbed”, the “AUC0-∞” value [6, 11] was 231.716 µg·h/mL and the AUC(0-t) [6, 11] was 203.705 µg·h/mL. The Cmax [6, 11] was 69946 ng/mL, the MRT [6, 11] was 10.12 h and the tmax [6, 11] was 0.25 h. The t½ [6, 11] was 8.11 h, the “elimination half-life (t1/2)” value ([6]; plasma, approximate value stated for both enantiomers) was “≈ 8 h” and the “presence of the opposite enantiomer in brain” value [7] was “almost negligible”. The “AUC0-∞” value [7, 12] was 60.037 µg·h/mL, the AUC(0-t) [7, 12] was 51.516 µg·h/mL and the Cmax [7, 12] was 8533 ng/mL. For the same compound, the MRT [7, 12] was 11.34 h, the tmax [7, 12] was 0.75 h and the t½ [7, 12] was 7.91 h.

For `NC(=O)N1c2ccccc2C[C@H](O)c2ccccc21` [S-licarbazepine, (S)-(+)-10,11-dihydro-10-hydroxy-5H dibenz/b,f/azepine-5-carboxamide], the “substrate for MRP” value [2] was “not a substrate”, the “effect of probenecid on brain/plasma ratio” value ([2]; probenecid 100 mg/kg 30 min before 100 mg/kg intraperitoneally, FIG. 2) was “failed to affect” and the “adverse effects during the course of the experiment” value [4, 10] was “no adverse effects were obvious”. For the same compound, the “substrate for P-gp” value [5] was “not a substrate”, the “effect of verapamil on brain/plasma ratio” value [5] was “failed to affect” and the MRT ([6]; CD-1, mouse, oral, 350 mg/kg, plasma, approximate range stated for both enantiomers, read-out: mean residence time (MRT)) was 10 to 12 h. For the same compound, the half-life ([6]; CD-1, mouse, oral, 350 mg/kg, plasma, approximate value stated for both enantiomers, read-out: elimination half-life (t1/2) (converted)) was about 8 h, the AUC(0-t) ([6]; CD-1, mouse, plasma, po, 350 mg/kg, plasma, after 350 mg/kg R-licarbazepine oral, CD-1 mice, read-out: AUC0-t) was 4.58 µg·h/mL and the Cmax ([6]; CD-1, mouse, plasma, po, 350 mg/kg, plasma, after 350 mg/kg R-licarbazepine oral, CD-1 mice, read-out: Cmax) was 1020 ng/mL. The AUC(0-t) ([6]; CD-1, mouse, plasma, po, 350 mg/kg, plasma, after 350 mg/kg S-licarbazepine oral, CD-1 mice, read-out: AUC0-t) was 187 µg·h/mL, the Cmax ([6]; CD-1, mouse, plasma, po, 350 mg/kg, plasma, after 350 mg/kg S-licarbazepine oral, CD-1 mice, read-out: Cmax) was 41300 ng/mL and the “amount detectable in plasma” value ([6]; S-licarbazepine in plasma after administration of R-licarbazepine) was “small amounts”. It also gave an AUC(0-inf) ([6]; mouse, plasma, after 350 mg/kg S-licarbazepine oral, CD-1 mice) of 258 µg·h/mL, an MRT ([6]; mouse, plasma, after 350 mg/kg S-licarbazepine oral, CD-1 mice, read-out: MRT) of 11.7 h and a tmax ([6]; mouse, plasma, after 350 mg/kg S-licarbazepine oral, CD-1 mice, read-out: tmax) of 0.25 h. The half-life ([6]; mouse, plasma, after 350 mg/kg S-licarbazepine oral, CD-1 mice, read-out: t½ (converted)) was 7.93 h, the “absorption after oral administration” value ([6]; oral, CD-1 mice) was “rapidly absorbed” and the “brain/plasma ratio (considering either Cmax or AUC)” value ([7]; FIG. 1, compared with R-licarbazepine) was “considerably greater”. For the same compound, the “presence of the opposite enantiomer in brain” value [7] was “almost negligible”, the “AUCbrain(S-Licarbazepine)/AUCbrain(R-Licarbazepine)” value ([7]; brain exposure ratio, each enantiomer given orally 350 mg/kg) was 1.9 and the AUC(0-inf) ([7]; mouse, brain, after 350 mg/kg S-licarbazepine oral, CD-1 mice) was 111 µg·h/mL. For the same compound, the AUC(0-t) ([7]; mouse, brain, after 350 mg/kg S-licarbazepine oral, CD-1 mice, read-out: AUC0-t) was 109 µg·h/mL, the Cmax ([7]; mouse, brain, after 350 mg/kg S-licarbazepine oral, CD-1 mice, read-out: Cmax) was 12300 ng/mL and the MRT ([7]; mouse, brain, after 350 mg/kg S-licarbazepine oral, CD-1 mice, read-out: MRT) was 7.84 h. It also gave a tmax ([7]; mouse, brain, after 350 mg/kg S-licarbazepine oral, CD-1 mice, read-out: tmax) of 1 h and a half-life ([7]; mouse, brain, after 350 mg/kg S-licarbazepine oral, CD-1 mice, read-out: t½ (converted)) of 4.87 h.

For `NCC1(CC(=O)O)CCCCC1` [Gabapentin], the “licking time versus vehicle controls” value [3] was “significantly (p<0.05) decreased”.

In the case of `CC[C@@H](C(N)=O)N1CCCC1=O` [Levetiracetam], the patients seizure-free [8] is given as 32% and the “substrate for either P-gp or MRP1/2” value ([1]; verapamil and probenecid did not increase brain penetration) is given as “not to be a substrate”.

For `NC(=O)N1c2ccccc2C=Cc2ccccc21` [carbamazepine], the “category of P-gp or MRP substrates” value [1] is listed as “P-gp or MRP substrates”.

For `CC(=O)O[C@H]1Cc2ccccc2N(C(N)=O)c2ccccc21` [eslicarbazepine acetate, (S)-(−)-10-acetoxy-10,11-dihydro-5H-dibenz/b,f/azepine-5-carboxamide], the “effect of probenecid on S-licarbazepine brain/plasma ratio after eslicarbazepine acetate” value [2, 13] is listed as “failed to affect”, the “effect of verapamil on S-licarbazepine brain/plasma ratio after eslicarbazepine acetate” value [5, 13] is listed as “failed to affect” and the “patients that became seizure free” value ([9]; 1 month after initiation of therapy) is listed as “approximately 25%”. For the same compound, the “efficacy in partial epilepsy refractory patients” value ([9]; administered once-daily) was “very efficacious”.

In the case of `NC(=O)N1c2ccccc2CC(=O)c2ccccc21` [oxcarbazepine], the “category of P-gp or MRP substrates” value [1] is listed as “P-gp or MRP substrates”.
